Measurements published in publication PMC4307180, “Overcoming myelosuppression due to synthetic lethal toxicity for FLT3-targeted acute myeloid leukemia therapy” (eLife, 2014).
“Also recorded” adds a separate entry of the source.

Columns and labels:
[1] = tested on: mpo+ myeloid cells in zebrafish embryos; assay: Zebrafish normal myelopoiesis, mpo WISH in posterior blood island; format: in vivo, Danio rerio (zebrafish); conditions: 10 μM, 6 to 30 hpf, read at 30 hpf, vs DMSO
Method: (§1) Figure 4. […] (N–P) Three categories of mpo transcription (N, normal; O, intermediate; P, severe) were defined based on the WISH results (three experiments). […] Scale bar equals 500 μm. Blue arrows indicate the pericardial edema, green arrows indicate tail shortening and curving, and red arrows indicate the FLT3-ITD AML mpo+ myeloid cells expansion. […] For all experiments: Zebrafish embryos were collected and kept in standard E3 medium at 28°C. Different concentrations of either drug were added to the E3 medium from 6 hr post fertilization (hpf) to 3 days post fertilization (dpf). Embryos treated with DMSO or 10 μM drug from 6 to 30 hpf were collected for mpo whole mount in situ hybridization (WISH) analysis. […] plasmid DNA containing FLT3/ITD sequence was microinjected into one-cell stage embryos, and the uninjected embryos were used as control. FLT3/ITD-injected embryos were treated with DMSO or 10 μM drug from 6 to 30 hpf.
(§2) Wild-type (WT) zebrafish were maintained under standard conditions, and embryos were staged as described ([He et al., 2014]). The study was approved by the Committee of the Use of Live Animals for Teaching and Research in The University of Hong Kong.

[2] = tested on: HMC1.1 cells (KIT V560G); assay: Cell proliferation/viability assay, HMC1.1; format: cell-based, human
Method: (§3) Exponentially growing cells (5 × 10^3 cells per well) were plated in each well of a 96-well plate with 0.1 ml of RPMI 1640 + 10% (vol/vol) FCS containing the appropriate concentration of drug in triplicate, and cell viability was assessed after 48 hr as previously described ([Smith et al., 2012]). […] Log10-scale transformation of ratios, followed by conditional formatting using xcel spreadsheet software yielded the colored diagrams shown.

[3] = tested on: Ba/F3 FLT3 ITD + D835F; assay: Ba/F3 cell viability, FLT3 ITD + D835F; format: cell-based; conditions: Mus musculus, Ba/F3, 48 hr, ± SEM
Method: (§4) Stable Ba/F3 lines were generated by retroviral spinfection with the appropriate mutated plasmid as previously described ([Smith et al., 2012]).
as §3
(§5) Mutations isolated in the screen were engineered into pMSCVpuroFLT3–ITD by QuikChange mutagenesis (Stratagene, La Jolla, CA) as previously described ([Smith et al., 2012]).

[4] = tested on: normal bone marrow (BM) and stimulated peripheral blood (SPB) hematopoietic progenitors; assay: Colony-forming assay, normal BM and stimulated peripheral blood; format: cell-based, human
From the text: Primary AML blood samples and/or marrow aspirates were obtained on an IRB-approved protocol at the University of California, San Francisco. Informed consent was obtained in accordance with the Declaration of Helsinki. Mononuclear cells were purified by density centrifugation (Ficoll–Paque Plus, GE Healthsciences) before cryopreservation in 10% (vol/vol) DMSO or FCS (primary ITD and D835-mutant assays, Figure 3A–C) or immediate use in assays (Normal BM and SPB, Figure 3D–F). Normal BM and stimulated peripheral blood (SPB) samples were collected from donors at the UCSF oncology/hematology division. Cells were then suspended in MethoCult methylcellulose (Stem Cell Technologies, product no. H4435 Enriched, Canada) in 15-ml Falcon tubes, vigorously vortexed, bubbles settled over 10 min. Triplicates then plated via blunt-nosed syringe (1.1 ml each) into 3-cm dishes, avoiding bubble generation, and each dish placed in a larger 10-cm dish with water trough in an incubator (37°C, 5% CO2) for 13–14 days. Colonies were counted individually using traditional microscopy. CFU and BFU types reported separately (CFU-GEMM colonies counted as one of each). Results shown for FLT3 ITD primary blasts (Figure 3B) are a combination of leukemic blast colonies and BFU colonies.

[5] = target: PDGFRβ (Homo sapiens, UniProt P09619); assay: Reaction Biology Corp kinase assay at Km-ATP (Figure 1C), PDGFRβ
PDGFRβ, sequence (P09619 33-1106): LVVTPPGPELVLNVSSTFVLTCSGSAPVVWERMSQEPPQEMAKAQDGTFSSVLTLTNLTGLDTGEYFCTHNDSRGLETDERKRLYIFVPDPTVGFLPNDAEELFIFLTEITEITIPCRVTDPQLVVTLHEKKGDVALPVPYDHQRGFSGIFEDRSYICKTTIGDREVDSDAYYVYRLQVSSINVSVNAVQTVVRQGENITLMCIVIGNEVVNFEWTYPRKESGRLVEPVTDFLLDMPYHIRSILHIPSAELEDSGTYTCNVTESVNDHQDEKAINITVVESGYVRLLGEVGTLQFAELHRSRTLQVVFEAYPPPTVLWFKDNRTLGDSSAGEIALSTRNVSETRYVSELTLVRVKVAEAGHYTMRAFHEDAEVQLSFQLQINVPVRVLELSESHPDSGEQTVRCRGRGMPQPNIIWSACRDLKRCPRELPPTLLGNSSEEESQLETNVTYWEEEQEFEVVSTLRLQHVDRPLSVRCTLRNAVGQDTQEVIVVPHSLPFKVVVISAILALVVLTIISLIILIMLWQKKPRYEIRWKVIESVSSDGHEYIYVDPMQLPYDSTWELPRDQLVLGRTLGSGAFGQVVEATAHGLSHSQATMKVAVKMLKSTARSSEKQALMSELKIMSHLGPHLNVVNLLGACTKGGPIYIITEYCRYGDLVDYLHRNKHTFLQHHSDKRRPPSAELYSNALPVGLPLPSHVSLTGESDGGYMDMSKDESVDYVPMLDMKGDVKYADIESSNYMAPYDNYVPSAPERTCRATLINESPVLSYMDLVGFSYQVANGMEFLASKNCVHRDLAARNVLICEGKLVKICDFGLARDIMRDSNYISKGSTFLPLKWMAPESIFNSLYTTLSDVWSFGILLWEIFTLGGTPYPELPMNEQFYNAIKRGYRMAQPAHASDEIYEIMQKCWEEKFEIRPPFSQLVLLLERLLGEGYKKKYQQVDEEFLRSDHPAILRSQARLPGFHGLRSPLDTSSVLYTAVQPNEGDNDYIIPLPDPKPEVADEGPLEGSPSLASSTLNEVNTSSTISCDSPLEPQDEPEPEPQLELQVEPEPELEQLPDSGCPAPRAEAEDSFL

[6] = tested on: zebrafish embryos; assay: Zebrafish embryonic development / WT morphology; format: in vivo, Danio rerio (zebrafish); conditions: 3 dpf, drug from 6 hpf
Method: as §1, §2

[7] = tested on: Ba/F3 FLT3 ITD + D835V; assay: Ba/F3 cell viability, FLT3 ITD + D835V; format: cell-based; conditions: Mus musculus, Ba/F3, 48 hr, ± SEM
Method: as §4, §3, §5

[8] = tested on: Ba/F3 FLT3 ITD; assay: Ba/F3 cell viability, FLT3 ITD; format: cell-based; conditions: Mus musculus, Ba/F3, 48 hr, ± SEM
Method: as §4, §3, §5

[9] = tested on: Ba/F3 FLT3 ITD + D835Y; assay: Ba/F3 cell viability, FLT3 ITD + D835Y; format: cell-based; conditions: Mus musculus, Ba/F3, 48 hr, ± SEM
Method: as §4, §3, §5

[10] = tested on: Ba/F3 FLT3 ITD + F691L; assay: Ba/F3 cell viability, FLT3 ITD + F691L; format: cell-based; conditions: Mus musculus, Ba/F3, 48 hr, ± SEM
Method: as §4, §3, §5

[11] = tested on: Ba/F3 FLT3 D835Y; assay: Ba/F3 cell viability, FLT3 D835Y; format: cell-based; conditions: Mus musculus, BaF3; Ba/F3, 48 hr, ± SEM
Method: as §4, §3, §5

[12] = tested on: MV4;11 cells (FLT3-ITD homozygous); assay: Cell proliferation/viability assay, MV4;11; format: cell-based; conditions: Homo sapiens, 48 hr, ± SEM
Method: as §3

[13] = tested on: Ba/F3 FLT3 D835V; assay: Ba/F3 cell viability, FLT3 D835V; format: cell-based; conditions: Mus musculus, BaF3; Ba/F3, 48 hr, ± SEM
Method: as §4, §3, §5

[14] = tested on: Ba/F3 Parental + IL3; assay: Ba/F3 cell viability, Parental + IL3; format: cell-based; conditions: Mus musculus, BaF3; Ba/F3, 48 hr, ± SEM
Method: as §4, §3

CC1NC(=O)c2c1c1c3ccccc3n(CCCN)c1c1[nH]c3ccccc3c21 (centres unmarked) [Star 27]
effect on mpo+ myeloid cells development in the PBI [1]: no statistically significant change; also recorded: non-significant difference | IC50 ([2]; Homo sapiens, Kit V560 G, 48 hr, ± SEM): > 5000 nM | selectivity window HMC1.1/MV4;11 ([2]; ratio of proliferation IC50s): > 122 fold | IC50 [3]: 53 ± 36 nM | raw colony numbers, normal BM, BFUs ([4]; all Star 27-treated conditions): ca. 400 | raw colony numbers, normal BM, CFUs ([4]; all Star 27-treated conditions): ca. 300 | effect on normal hematopoietic colony formation (CFU and BFU) ([4]; normal BM and SPB donors, up to 1,000 nM): no effect on hematopoiesis up to 1,000 nM; also recorded: no significant effect up to a concentration of 1,000 nM | IC50 [5]: 80 ± 11 nM | effect on zebrafish embryonic development / morphology [6]: no change in heart and tail morphology; also recorded: no noticeable morphological defects up to 10 μM | IC50 [7]: 70 ± 58 nM | IC50 [8]: 57 ± 45 nM | IC50 [9]: 39 ± 24 nM | IC50 [10]: 144 ± 97 nM | IC50 [11]: 18 ± 12 nM | IC50 [12]: 41 ± 6 nM | IC50 [13]: 19 ± 3 nM | IC50 [14]: 2300 nM
